From paper PMC5813016 (Nature Communications, 2018)
Several values for one entry are separate records, joined by “and”; a condition that tells them apart may be missing. Equal values may be shown once.

How the values were obtained:
[1] = target: T1, Nav1.5 Sodium Channel (Homo sapiens, UniProt Q14524); assay: FLIPR membrane potential assay, Nav1.5; type: cell-based; details: for EC50: read-out: Nav1.5 Sodium Channel Agonist EC50; for IC50: read-out: Nav1.5 Sodium Channel Antagonist IC50
T1 construct: expressed in transfected cells
Description: Sodium channel (Nav1.5) activity was assessed using a FLIPR® based membrane potential assay using cells that stably express the Nav1.5 sodium channel subtype. Cells were plated at 7500 cells per well (50 µl per well) in black walled clear bottomed 384-well plates 24 h prior to running the assay. Medium was removed from the plates and 80 µl of (HBSS)/HEPES containing membrane potential dye (Molecular Devices; Cat # R8123) was added to each well and the plate was returned to the incubator for 1 h to allow dye loading. Compound solution (10 µl) was added to each well by the FLIPR Tetra® instrument to measure agonist activity of the compound by measuring the change in fluorescence from baseline over a 60 s period (Ex 510–545 nM; Em 565–625 nM). Subsequently 10 µl of agonist (EC80 value) was added to each well by the FLIPR Tetra® instrument to evaluate antagonist activity, with the change in fluorescence from baseline being measured over a 60 s period.
(§1) In vitro data analysis: Agonist/antagonist curves were plotted from individual experiments, and EC50/IC50 values were determined using a four parameter logistic fit.

[2] = target: Human PDE5A1 (Homo sapiens, UniProt O76074); assay: PDE SPA assay, PDE5A1; type: biochemical
Description: (§2) PDE assays: The PDE assays measures the conversion of 3′, 5′-[^3H] cAMP to 5′-[^3H] AMP (for PDE 3A1 and 4D3) or 3′, 5′-[^3H] cGMP to 5′-[^3H] GMP (for PDE 5A1) by the relevant PDE enzyme subtype. Yttrium silicate (YSi) scintillation proximity (SPA) beads bind selectively to 5′-[^3H] AMP or 5′-[^3H] […] The assay was performed in white walled opaque bottom 384-well plates. One microliter of compound in dimethyl sulfoxide was added to each well. Enzyme solution was then added to each well in buffer (in mM: Trizma, 50 (pH7.5); MgCl2, 1.3 mM). […] The reaction was terminated by the addition of 20 µl of PDE YSi SPA beads (Perkin Elmer). Following an additional 8 h incubation period the plates were read on a MicroBeta radioactive plate counter (Perkin Elmer) to determine radioactive counts per well.
as §1

[3] = target: T2, Dopamine Transporter (Homo sapiens, UniProt Q01959); assay: Amine transporter dye uptake assay, DAT; type: cell-based
T2 construct: expressed in transfected cells
Description: HBSS/HEPES containing compound (5 µl) was added to the wells of black walled clear bottomed 384-well plate. Transporter dye (25 µl) (Molecular Devices; Cat # R8174) was added to each well. Finally 15,000 cells (20 µl) stably expressing the amine transporter of interest were added to each well and the plate is incubated at 37 °C for 30 min (DAT) or 60 min (NET and SERT). The plate is transferred to the FLIPR Tetra® instrument and the fluorescence of each well was measured (Ex […]). The level of fluorescence measured directly relates to the level of uptake of the dye labelled amine, with a reduction in levels being related to an inhibition of the respective transporter.
as §1

[4] = target: Human PDE4D3 (Homo sapiens, UniProt Q08499); assay: PDE SPA assay, PDE4D3; type: biochemical
Description: as §2, §1

[5] = target: T3, Serotonin 2b (Homo sapiens, UniProt P41595); assay: FLIPR calcium assay, serotonin 2b; type: cell-based; details: for EC50: read-out: Serotonin 2b, Agonist EC50; for IC50: vs EC80 of agonist, read-out: Serotonin 2b, Antagonist IC50
T3 construct: expressed in transfected cells
Description: Activation of the receptor by an agonist in this assay system results in an increase in intracellular calcium levels which is measured using a calcium specific dye. Cells were plated at 7500 cells per well (50 µl per well) in black walled clear bottomed 384-well plates 24 h prior to running the assay. […] Compound solution (10 µl) was added to each well by the FLIPR Tetra® instrument to measure agonist activity of the compound by measuring the change in fluorescence from baseline over a 60 s period (Ex […]). Subsequently 10 µl of agonist (EC80 value) was added to each well by the FLIPR Tetra® instrument to evaluate antagonist activity, with the change in fluorescence from baseline being measured over a 60 s period.
as §1

[6] = target: T4, Human D4R (Homo sapiens, UniProt P21917); assay: Human D4R binding
T4 sequence (P21917 1-419): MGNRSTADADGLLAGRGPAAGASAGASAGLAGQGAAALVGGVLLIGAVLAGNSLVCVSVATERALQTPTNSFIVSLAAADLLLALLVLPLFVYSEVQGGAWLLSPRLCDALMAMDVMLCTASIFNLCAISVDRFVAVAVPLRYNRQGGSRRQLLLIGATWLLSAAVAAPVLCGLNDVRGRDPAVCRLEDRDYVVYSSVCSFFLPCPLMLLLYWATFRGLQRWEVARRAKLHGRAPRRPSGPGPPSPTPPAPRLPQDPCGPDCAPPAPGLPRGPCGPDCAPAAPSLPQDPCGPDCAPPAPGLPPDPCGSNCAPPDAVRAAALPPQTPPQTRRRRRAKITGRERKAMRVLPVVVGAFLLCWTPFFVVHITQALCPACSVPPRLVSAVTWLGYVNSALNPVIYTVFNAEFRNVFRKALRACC

[7] = system: human D1R S188T mutant; assay: cAMP assay, D1R mutant S188T; details: relative to wild-type D1R; each table line is one experiment (Experiment # 1-6)
[8] = system: human D1R S188A mutant; assay: cAMP assay, D1R mutant S188A; details: relative to wild-type D1R; each table line is one experiment (Experiment # 1-6)
[9] = system: human D1R F289A mutant; assay: cAMP assay, D1R mutant F289A; details: relative to wild-type D1R; each table line is one experiment (Experiment # 1-6)
[10] = system: human D1R W321A mutant; assay: cAMP assay, D1R mutant W321A; details: relative to wild-type D1R; each table line is one experiment (Experiment # 1-6)
[11] = system: human D1R I117A mutant; assay: cAMP assay, D1R mutant I117A; details: relative to wild-type D1R; each table line is one experiment (Experiment # 1-6)

T3 sequence (P41595 whole entry): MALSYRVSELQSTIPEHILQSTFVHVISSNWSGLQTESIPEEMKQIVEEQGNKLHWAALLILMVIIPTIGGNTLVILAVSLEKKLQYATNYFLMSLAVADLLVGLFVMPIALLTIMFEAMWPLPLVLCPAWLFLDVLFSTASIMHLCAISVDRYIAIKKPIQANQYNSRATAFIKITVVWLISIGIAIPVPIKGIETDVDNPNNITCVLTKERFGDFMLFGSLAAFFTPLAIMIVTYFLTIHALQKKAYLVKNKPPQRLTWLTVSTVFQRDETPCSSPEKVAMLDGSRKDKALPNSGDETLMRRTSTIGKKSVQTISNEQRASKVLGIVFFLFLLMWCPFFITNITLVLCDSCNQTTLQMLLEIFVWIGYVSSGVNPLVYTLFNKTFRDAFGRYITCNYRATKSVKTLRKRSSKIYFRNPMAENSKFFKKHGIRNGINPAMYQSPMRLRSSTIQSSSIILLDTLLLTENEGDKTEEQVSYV
T2 sequence (Q01959 whole entry): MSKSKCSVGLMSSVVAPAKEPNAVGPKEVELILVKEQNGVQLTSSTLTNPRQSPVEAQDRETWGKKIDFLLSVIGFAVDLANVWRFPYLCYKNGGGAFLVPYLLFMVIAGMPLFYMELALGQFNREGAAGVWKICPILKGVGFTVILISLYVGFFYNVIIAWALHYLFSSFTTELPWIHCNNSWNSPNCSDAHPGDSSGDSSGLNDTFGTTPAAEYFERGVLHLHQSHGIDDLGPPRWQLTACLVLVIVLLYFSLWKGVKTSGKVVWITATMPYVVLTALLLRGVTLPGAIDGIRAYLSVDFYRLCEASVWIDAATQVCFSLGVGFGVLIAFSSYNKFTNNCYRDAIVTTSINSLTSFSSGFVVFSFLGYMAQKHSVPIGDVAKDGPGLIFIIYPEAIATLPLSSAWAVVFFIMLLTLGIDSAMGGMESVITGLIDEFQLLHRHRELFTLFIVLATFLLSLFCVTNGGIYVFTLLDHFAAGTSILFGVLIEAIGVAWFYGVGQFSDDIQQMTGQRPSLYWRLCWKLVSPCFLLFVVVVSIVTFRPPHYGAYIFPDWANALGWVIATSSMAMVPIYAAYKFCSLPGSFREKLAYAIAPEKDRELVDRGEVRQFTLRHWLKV
T1 sequence (Q14524 whole entry): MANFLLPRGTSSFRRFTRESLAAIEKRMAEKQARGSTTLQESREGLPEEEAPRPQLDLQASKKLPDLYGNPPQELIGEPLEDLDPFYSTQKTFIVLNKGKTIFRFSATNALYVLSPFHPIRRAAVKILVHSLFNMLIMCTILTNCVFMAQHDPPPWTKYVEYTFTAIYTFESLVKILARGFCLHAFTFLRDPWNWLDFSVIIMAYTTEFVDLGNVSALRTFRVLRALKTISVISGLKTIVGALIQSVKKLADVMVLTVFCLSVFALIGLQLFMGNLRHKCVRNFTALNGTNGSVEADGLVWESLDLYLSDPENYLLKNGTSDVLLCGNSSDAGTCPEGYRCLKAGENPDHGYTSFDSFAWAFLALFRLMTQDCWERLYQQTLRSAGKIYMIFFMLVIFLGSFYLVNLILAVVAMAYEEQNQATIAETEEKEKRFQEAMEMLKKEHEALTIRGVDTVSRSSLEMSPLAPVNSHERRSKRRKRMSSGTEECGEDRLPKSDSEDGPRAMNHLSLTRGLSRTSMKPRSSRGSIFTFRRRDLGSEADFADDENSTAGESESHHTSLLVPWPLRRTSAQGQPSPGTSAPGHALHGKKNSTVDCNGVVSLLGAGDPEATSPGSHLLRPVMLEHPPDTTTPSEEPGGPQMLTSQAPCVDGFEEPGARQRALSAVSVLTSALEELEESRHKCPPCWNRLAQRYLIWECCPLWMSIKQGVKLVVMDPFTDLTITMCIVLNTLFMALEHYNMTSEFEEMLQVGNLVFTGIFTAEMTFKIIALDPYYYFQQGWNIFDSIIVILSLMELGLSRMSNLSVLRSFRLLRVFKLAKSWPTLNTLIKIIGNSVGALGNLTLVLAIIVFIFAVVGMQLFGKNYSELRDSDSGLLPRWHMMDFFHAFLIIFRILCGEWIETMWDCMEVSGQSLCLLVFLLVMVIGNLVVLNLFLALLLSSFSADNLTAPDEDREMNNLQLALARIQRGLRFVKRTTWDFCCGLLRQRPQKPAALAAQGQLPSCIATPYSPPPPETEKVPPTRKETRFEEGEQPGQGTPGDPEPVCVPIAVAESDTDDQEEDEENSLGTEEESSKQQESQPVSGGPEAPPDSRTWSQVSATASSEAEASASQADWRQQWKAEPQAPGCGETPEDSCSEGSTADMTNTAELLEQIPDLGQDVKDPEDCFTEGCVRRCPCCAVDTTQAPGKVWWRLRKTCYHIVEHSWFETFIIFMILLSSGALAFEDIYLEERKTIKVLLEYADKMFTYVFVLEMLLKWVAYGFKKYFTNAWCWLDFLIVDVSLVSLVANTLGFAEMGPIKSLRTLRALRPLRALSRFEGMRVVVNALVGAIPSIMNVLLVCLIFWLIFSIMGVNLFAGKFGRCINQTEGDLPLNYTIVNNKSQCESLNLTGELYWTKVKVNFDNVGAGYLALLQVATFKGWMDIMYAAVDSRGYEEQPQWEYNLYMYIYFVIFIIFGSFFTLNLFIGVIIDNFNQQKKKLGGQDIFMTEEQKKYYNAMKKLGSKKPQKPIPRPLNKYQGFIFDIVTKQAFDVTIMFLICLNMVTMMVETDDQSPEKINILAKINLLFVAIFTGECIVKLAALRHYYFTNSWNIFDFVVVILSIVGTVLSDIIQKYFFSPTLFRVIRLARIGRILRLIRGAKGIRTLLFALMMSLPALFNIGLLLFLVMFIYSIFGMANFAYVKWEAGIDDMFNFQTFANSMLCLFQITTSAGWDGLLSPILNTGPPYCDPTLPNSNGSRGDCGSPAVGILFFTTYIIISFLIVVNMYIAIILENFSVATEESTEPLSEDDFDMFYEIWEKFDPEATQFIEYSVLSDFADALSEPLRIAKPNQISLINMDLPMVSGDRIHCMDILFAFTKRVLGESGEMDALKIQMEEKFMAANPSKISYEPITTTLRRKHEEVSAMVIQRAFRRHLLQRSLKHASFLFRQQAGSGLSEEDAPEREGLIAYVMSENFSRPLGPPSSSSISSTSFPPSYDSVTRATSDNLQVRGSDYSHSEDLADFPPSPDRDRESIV
Sequence of Human PDE4D3 (Q08499 1-673 isoform Q08499-2): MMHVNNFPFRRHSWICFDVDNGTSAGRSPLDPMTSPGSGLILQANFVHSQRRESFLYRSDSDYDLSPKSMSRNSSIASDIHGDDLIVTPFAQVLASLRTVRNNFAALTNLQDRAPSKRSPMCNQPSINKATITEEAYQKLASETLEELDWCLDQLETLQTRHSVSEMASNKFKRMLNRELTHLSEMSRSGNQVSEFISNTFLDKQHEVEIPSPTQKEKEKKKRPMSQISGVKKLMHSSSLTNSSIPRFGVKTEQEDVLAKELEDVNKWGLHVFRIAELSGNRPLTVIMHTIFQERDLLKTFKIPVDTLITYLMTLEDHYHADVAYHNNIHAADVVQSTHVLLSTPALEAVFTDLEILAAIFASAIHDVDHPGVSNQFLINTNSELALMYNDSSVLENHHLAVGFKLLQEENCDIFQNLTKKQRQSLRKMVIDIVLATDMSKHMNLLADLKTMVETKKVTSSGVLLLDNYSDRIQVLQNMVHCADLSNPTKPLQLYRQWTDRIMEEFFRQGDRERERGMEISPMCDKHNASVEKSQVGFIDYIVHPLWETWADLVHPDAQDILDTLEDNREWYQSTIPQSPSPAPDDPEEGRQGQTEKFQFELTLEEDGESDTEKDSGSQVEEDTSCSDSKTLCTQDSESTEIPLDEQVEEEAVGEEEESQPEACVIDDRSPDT

| Ki [6] | fold shift of cAMP functional potency, S188T (EC50 mutant/ EC50 WT) [7] | fold shift of cAMP functional potency, S188A (EC50 mutant/ EC50 WT) [8] | fold shift of cAMP functional potency, F289A (EC50 mutant/ EC50 WT) [9] | Structure (SMILES) | EC50 [1] | IC50 [1] | IC50 [2] | IC50 [3] | IC50 [4] | EC50 [5] | IC50 [5] | fold shift of cAMP functional potency, W321A (EC50 mutant/ EC50 WT) [10] | fold shift of cAMP functional potency, I117A (EC50 mutant/ EC50 WT) [11] |
| --- | --- | --- | --- | --- | --- | --- | --- | --- | --- | --- | --- | --- | --- |
| > 10 µM | – | – | – | Cc1n[nH]c(=O)c(C)c1-c1ccc(Oc2nccc3occc23)cc1F [PF-2334] | – | – | – | – | – | – | – | – | – |
| > 10 µM | 1.8 | 0.6 | 27.9 | Cc1cc(Oc2nccc3occc23)ccc1-c1c(C)ncnc1C [PF-8871] | > 10 µM | 8.68 µM | > 10 µM | > 10 µM | > 10 µM | > 10 µM | > 10 µM | 21.4 | – |
| > 10 µM | – | – | – | Cc1cc(Oc2nccc3occc23)ccc1-c1c(C)cnnc1C [PF-1119] | > 10 µM | 2.64 µM | > 10 µM | > 10 µM | 1.81 µM | > 10 µM | > 10 µM | – | – |

The remaining lines, values behind:

| Structure (SMILES) | Ki [6] | fold shift of cAMP functional potency, S188T (EC50 mutant/ EC50 WT) [7] | fold shift of cAMP functional potency, S188A (EC50 mutant/ EC50 WT) [8] | fold shift of cAMP functional potency, F289A (EC50 mutant/ EC50 WT) [9] | EC50 [1] | IC50 [1] | IC50 [2] | IC50 [3] | IC50 [4] | EC50 [5] | IC50 [5] | fold shift of cAMP functional potency, W321A (EC50 mutant/ EC50 WT) [10] | fold shift of cAMP functional potency, I117A (EC50 mutant/ EC50 WT) [11] |
| --- | --- | --- | --- | --- | --- | --- | --- | --- | --- | --- | --- | --- | --- |
| Cc1cc(Oc2nccc3occc23)ccc1-n1c(C)nc2cnccc21 [PF-8294] | – | – | – | – | > 10 µM | > 5.9 µM | > 10 µM | > 10 µM | > 10 µM | > 10 µM | > 10 µM | – | – |
| Cc1cc(Oc2nccc3occc23)ccc1-c1c(C)ncc2nccn12 [PF-6142] | – | 1.3 and 1.7 | 2.3 and 2.0 | 32.3 and 44.7 | > 10 µM | 1.09 µM | > 10 µM | > 10 µM | > 10 µM | > 10 µM | > 10 µM | 22.7 and 21.1 | 9.8 |
| Cc1cc(Oc2cccc(O)c2O)ccc1-c1c(C)ncnc1C [PF-1437] | > 10 µM | 0.6 and 0.9 | 1.0 and 0.8 and 0.7 | 12.4 and 16.0 | – | – | – | – | – | – | – | – | 15.2 |
